Results on 1 molecule are retold here after patent US9371265B2, “Compositions and methods related to inhibitors of JAK kinase” (EP PHARMA, INC., priority 2012, dated 2016).

Series [1] in a line: Stability in mouse plasma (LC-MS/MS). It is filed as in vitro ADME. As to conditions: indicated concentrations and incubation time points. The protocol:
FIG. 11 illustrates the dose-dependent effect of (FIG. 11A) freshly prepared EP-009(P) and (FIG. 11B) EP-009(P) stored in aqueous conditions for 48 hr at room temperature on IL-2/JAK3-dependent Kit225 cell viability. FIG. 12 illustrates LC-MS/MS detection of EP-009 (5 ng/ml) in mouse plasma at a retention time of 1.91 min.

In a further series the target is ABL1-phosphorylated (Homo sapiens, UniProt P00519). Briefly: Kinase panel: ABL1-phosphorylated. Format: biochemical. As to conditions: 10 μM EP009. The procedure:
(§1) Achieving JAK3 selectivity remains a significant challenge in the development of new small molecules for the treatment of cancer and immune-derived diseases. As such, the inventors employed cell-based screening assays of small-molecule libraries based upon the chemical scaffold of the established JAK3 inhibitor NC1153 (Stepkowski et al., J Immunol. (2005), 175(7):4236-4246) EP009 (FIG. 2A) was selected as a lead compound due to improved intrinsic stability (>95% purity in various solvents at 37° C. for 24 hours; FIG. 3) and high-degree of JAK3 selectivity. To test JAK3 versus JAK2 specificity of EP009, the IL-2/JAK3-dependent Kit225, and IL-3/JAK2-dependent BaF/3 cell lines were used. Kit225 and BaF/3 cells growing in the presence of IL-2 or IL-3, respectively, were treated with ascending concentrations of EP009 for 12 hours and cellular JAK3 and JAK2 tyrosine phosphorylation levels detected by Western blot analysis (FIGS. 2B and 2C). Following densitometric analysis, EP009 was determined to dose-dependently reduce IL-2-mediated JAK3 tyrosine phosphorylation with a cellular 50% inhibitory concentration (IC50) between 10 and 20 μM (FIG. 2B). […] To globally evaluate specificity, the inhibitory activity of EP009 was measured against a panel of protein kinases distributed throughout the kinome using the scanEDGE profiling service (KINOMEscan). […]

The target of another series is AKT2 (Homo sapiens, UniProt P31751). Briefly: Kinase panel: AKT2. It is filed as biochemical. As to conditions: 10 μM EP009. The protocol:
as §1

The next series has as its target ALK (Homo sapiens, UniProt Q9UM73). Kind of series: Kinase panel: ALK. Format: biochemical. Conditions: 10 μM EP009. The protocol: as §1
The target of another series is CSNK1G2 (Homo sapiens, UniProt P78368). Briefly: Kinase panel: CSNK1G2. It is filed as biochemical. As to conditions: 10 μM EP009. The procedure: as §1
The target of another series is EGFR (Homo sapiens, UniProt P00533). Briefly: Kinase panel: EGFR. Format: biochemical. As to conditions: 10 μM EP009. The protocol: as §1
The next series addresses FGFR2 (Homo sapiens, UniProt P21802). Kind of series: Kinase panel: FGFR2. Format: biochemical. As to conditions: 10 μM EP009. The procedure:
as §1

Another series addresses FGFR3 (Homo sapiens, UniProt P22607). Kind of series: Kinase panel: FGFR3. Format: biochemical. As to conditions: 10 μM EP009. The protocol:
as §1

A further series addresses GSK3B (Homo sapiens, UniProt P49841). Briefly: Kinase panel: GSK3B. Format: biochemical. As to conditions: 10 μM EP009. The protocol:
as §1

In the next series the target is IKK-alpha (Homo sapiens, UniProt O15111). Kind of series: Kinase panel: IKK-alpha. It is filed as biochemical. Conditions: 10 μM EP009. The protocol:
as §1

In another series the target is JNK1 (Homo sapiens, UniProt P45983). Kind of series: Kinase panel: JNK1. Format: biochemical. As to conditions: 10 μM EP009. The protocol:
as §1

In the next series the target is JNK2 (Homo sapiens, UniProt P45984). Kind of series: Kinase panel: JNK2. Format: biochemical. As to conditions: 10 μM EP009. The procedure: as §1
Another series has as its target JNK3 (Homo sapiens, UniProt P53779). Briefly: Kinase panel: JNK3. It is filed as biochemical. As to conditions: 10 μM EP009. The procedure:
as §1

A further series concerns the target KIT (Homo sapiens, UniProt P10721). Kind of series: Kinase panel: KIT. Format: biochemical. As to conditions: 10 μM EP009. The procedure: as §1
A further series deals with MAPKAPK2 (Homo sapiens, UniProt P49137). Kind of series: Kinase panel: MAPKAPK2. Format: biochemical. As to conditions: 10 μM EP009. The procedure:
as §1

A further series deals with PAK4 (Homo sapiens, UniProt O96013). Kind of series: Kinase panel: PAK4. Format: biochemical. As to conditions: 10 μM EP009. The protocol:
as §1

Another series deals with PCTK1 (Homo sapiens, UniProt Q00536). Kind of series: Kinase panel: PCTK1. It is filed as biochemical. Conditions: 10 μM EP009. The procedure:
as §1

The next series concerns the target PDGFRA (Homo sapiens, UniProt P16234). Kind of series: Kinase panel: PDGFRA. Conditions: 10 μM EP009. Format: biochemical. The protocol: as §1
The next series concerns the target PDGFRB (Homo sapiens, UniProt P09619). Kind of series: Kinase panel: PDGFRB. Format: biochemical. Conditions: 10 μM EP009. The protocol: as §1
In a further series the target is PIM2 (Homo sapiens, UniProt Q9P1W9). Kind of series: Kinase panel: PIM2. It is filed as biochemical. As to conditions: 10 μM EP009. The procedure:
as §1

In another series the target is PKAC-alpha (Homo sapiens, UniProt P17612). Kind of series: Kinase panel: PKAC-alpha. It is filed as biochemical. As to conditions: 10 μM EP009. The protocol: as §1
A further series addresses RET (Homo sapiens, UniProt P07949). Kind of series: Kinase panel: RET. Conditions: 10 μM EP009. It is filed as biochemical. The protocol: as §1

PAK4, sequence (O96013 whole entry): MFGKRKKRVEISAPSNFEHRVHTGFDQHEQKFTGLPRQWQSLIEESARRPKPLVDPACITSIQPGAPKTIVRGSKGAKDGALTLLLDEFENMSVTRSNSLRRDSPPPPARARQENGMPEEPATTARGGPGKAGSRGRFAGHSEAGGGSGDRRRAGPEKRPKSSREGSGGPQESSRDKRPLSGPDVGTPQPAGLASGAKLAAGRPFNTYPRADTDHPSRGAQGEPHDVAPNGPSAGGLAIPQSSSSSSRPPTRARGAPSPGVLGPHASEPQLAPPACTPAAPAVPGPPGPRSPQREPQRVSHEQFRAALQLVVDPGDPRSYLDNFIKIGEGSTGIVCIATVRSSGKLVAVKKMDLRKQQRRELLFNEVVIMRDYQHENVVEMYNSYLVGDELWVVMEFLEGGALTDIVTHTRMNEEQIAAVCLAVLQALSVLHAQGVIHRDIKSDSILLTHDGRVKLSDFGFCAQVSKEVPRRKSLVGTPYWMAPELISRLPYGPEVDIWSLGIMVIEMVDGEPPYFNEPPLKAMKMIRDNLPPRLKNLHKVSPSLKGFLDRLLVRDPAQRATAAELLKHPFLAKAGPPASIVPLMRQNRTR
EGFR, sequence (P00533 25-1210): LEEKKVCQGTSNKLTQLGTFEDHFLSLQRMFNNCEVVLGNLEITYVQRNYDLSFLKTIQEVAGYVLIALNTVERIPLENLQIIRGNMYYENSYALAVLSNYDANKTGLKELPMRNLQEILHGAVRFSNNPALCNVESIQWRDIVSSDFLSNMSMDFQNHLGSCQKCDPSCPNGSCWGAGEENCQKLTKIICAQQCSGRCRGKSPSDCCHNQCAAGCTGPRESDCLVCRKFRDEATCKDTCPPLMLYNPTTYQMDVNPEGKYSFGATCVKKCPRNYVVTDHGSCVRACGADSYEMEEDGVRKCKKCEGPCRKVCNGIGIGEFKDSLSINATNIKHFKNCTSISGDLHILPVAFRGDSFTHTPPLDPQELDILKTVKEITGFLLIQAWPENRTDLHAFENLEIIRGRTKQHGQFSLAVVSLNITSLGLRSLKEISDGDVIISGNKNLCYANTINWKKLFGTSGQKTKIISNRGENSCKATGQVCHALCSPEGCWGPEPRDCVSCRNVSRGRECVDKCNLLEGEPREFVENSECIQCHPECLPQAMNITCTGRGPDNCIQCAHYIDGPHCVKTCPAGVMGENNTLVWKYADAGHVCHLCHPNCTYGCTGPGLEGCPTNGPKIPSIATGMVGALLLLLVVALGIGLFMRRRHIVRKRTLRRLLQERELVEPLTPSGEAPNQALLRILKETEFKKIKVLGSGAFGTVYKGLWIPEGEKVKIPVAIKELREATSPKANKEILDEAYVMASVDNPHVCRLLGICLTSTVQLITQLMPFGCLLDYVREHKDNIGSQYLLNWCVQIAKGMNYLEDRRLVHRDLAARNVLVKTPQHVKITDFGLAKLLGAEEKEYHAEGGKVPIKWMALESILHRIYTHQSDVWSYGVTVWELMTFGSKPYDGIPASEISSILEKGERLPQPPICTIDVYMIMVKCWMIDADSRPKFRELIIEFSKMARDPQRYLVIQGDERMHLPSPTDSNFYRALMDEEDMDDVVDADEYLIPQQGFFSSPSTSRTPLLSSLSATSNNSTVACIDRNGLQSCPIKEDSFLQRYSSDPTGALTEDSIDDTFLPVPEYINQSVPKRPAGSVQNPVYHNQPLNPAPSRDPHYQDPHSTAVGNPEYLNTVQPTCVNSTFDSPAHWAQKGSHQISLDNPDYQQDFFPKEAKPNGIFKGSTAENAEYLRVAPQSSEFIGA
IKK-alpha, sequence (O15111 whole entry): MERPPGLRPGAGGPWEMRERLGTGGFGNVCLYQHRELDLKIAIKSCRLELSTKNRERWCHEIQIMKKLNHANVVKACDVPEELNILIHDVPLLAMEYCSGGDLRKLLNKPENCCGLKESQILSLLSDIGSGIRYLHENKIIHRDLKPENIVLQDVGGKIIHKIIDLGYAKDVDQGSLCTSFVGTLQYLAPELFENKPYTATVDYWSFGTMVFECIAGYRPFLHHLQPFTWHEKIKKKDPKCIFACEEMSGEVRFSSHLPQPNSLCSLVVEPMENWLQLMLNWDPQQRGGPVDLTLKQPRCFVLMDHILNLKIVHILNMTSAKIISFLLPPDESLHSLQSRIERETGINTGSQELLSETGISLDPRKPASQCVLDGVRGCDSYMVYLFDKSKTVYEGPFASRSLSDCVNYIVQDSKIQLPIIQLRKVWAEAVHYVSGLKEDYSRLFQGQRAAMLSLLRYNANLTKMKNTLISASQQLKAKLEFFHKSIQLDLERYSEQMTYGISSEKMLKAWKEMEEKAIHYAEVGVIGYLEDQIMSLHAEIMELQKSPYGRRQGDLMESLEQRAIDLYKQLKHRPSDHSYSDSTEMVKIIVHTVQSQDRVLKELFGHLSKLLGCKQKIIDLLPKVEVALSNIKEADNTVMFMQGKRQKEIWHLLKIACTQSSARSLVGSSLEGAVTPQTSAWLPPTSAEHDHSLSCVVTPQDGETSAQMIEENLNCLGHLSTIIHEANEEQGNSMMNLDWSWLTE
AKT2, sequence (P31751 whole entry): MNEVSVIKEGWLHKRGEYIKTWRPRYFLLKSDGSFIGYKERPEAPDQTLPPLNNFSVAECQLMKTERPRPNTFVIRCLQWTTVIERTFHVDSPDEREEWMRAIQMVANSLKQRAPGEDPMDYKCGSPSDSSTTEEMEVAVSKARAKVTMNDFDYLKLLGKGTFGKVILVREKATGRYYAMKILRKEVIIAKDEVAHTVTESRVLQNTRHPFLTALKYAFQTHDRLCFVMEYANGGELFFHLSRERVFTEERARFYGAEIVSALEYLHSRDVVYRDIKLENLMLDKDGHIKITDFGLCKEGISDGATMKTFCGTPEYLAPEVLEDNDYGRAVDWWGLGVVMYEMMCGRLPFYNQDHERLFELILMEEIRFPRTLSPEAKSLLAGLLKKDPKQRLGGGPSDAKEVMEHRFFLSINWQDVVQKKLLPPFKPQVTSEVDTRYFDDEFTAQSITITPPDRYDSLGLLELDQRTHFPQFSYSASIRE
GSK3B, sequence (P49841 whole entry): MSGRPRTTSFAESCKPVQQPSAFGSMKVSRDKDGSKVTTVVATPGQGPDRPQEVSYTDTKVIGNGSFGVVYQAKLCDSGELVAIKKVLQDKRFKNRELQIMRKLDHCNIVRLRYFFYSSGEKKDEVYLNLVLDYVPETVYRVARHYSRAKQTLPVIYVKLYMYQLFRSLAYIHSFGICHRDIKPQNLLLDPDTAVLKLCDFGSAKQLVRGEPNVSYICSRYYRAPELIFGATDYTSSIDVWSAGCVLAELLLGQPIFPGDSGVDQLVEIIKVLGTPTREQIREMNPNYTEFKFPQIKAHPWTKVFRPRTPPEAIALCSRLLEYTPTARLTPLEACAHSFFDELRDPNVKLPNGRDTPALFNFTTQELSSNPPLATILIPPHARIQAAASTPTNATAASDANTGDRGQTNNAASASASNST
FGFR3, sequence (P22607 23-806): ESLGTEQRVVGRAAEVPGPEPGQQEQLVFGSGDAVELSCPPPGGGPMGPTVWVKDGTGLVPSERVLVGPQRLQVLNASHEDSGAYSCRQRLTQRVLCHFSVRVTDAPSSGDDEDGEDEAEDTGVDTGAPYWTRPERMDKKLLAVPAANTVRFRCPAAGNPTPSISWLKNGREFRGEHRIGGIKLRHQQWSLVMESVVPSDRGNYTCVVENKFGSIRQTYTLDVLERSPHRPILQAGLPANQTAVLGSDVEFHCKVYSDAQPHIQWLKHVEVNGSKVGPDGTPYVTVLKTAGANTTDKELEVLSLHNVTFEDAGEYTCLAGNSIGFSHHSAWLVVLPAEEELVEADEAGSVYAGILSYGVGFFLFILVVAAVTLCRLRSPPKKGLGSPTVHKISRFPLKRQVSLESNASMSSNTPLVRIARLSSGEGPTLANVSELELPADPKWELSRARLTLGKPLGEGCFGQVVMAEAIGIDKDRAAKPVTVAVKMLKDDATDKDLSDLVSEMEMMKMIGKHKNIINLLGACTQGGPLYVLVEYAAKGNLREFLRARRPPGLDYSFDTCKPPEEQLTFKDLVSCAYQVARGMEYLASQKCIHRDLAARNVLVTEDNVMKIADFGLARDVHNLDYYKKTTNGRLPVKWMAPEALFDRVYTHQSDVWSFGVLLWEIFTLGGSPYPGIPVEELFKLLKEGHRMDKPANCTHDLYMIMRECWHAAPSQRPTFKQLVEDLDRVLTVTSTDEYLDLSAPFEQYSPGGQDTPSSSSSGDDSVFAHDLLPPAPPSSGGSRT
MAPKAPK2, sequence (P49137 whole entry): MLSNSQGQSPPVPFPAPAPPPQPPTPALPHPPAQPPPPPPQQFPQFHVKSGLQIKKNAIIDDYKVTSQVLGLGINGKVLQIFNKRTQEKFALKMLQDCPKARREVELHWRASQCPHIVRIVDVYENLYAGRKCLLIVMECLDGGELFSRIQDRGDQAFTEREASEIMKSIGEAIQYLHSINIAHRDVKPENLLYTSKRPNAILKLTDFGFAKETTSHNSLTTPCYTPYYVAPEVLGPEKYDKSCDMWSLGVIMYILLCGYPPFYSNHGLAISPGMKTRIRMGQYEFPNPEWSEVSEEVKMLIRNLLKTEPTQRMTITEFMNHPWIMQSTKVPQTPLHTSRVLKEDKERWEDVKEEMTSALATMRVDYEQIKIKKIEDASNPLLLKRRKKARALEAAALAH
PIM2, sequence (Q9P1W9 whole entry): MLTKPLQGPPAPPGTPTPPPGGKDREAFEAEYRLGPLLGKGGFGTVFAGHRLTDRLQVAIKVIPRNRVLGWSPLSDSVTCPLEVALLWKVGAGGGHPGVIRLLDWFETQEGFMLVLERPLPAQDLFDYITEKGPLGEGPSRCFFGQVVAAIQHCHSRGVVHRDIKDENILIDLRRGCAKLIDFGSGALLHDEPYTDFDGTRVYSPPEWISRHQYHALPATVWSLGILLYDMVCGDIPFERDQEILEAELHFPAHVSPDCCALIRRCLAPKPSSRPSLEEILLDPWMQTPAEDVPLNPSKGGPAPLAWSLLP

On to `C=C1CCCCCCCCCC(CO)C1=O` (stereo not shown) [EP009, 2-(Hydroxymethyl)-12-methylenecyclododecanone], for which the “stability in mouse plasma” value in [1] was “stable and readily detected”. Moreover, the “Kinase Activity (% of Control)” value on ABL1-phosphorylated, at AKT2, on ALK, at CSNK1G2, on EGFR and at FGFR2 was 100 % of Control each time. Further, the “Kinase Activity (% of Control)” value is 100 % of Control on FGFR3; 100 % of Control on GSK3B; 87 % of Control at IKK-alpha; 99 % of Control on JNK1; 100 % of Control at JNK2; 100 % of Control on JNK3. Also, the “Kinase Activity (% of Control)” value on KIT is 100 % of Control; on MAPKAPK2 it was 100 % of Control; at PAK4 it was 100 % of Control; on PCTK1, 85 % of Control; on PDGFRA, 100 % of Control; on PDGFRB, 100 % of Control. The “Kinase Activity (% of Control)” value at PIM2, at PKAC-alpha and on RET was 100 % of Control each time.
